Results published in US8546442B2, “Pyrazolopiperidine compounds as CCR1 receptor antagonists” (Boehringer Ingelheim International GmbH, priority 2010, dated 2013).

Legend:
CCR1 [1] = molecular target: T1, CCR1 (Homo sapiens, UniProt P32246); test: calcium flux in CCR1 transfected cells, Method A (Fluo-4 NW, FLIPR TETRA); assay type: cell-based; conditions: cells stably expressing recombinant CCR1 and G-alpha-16, MIP-1 alpha at EC80
T1 sequence (P32246 1-355): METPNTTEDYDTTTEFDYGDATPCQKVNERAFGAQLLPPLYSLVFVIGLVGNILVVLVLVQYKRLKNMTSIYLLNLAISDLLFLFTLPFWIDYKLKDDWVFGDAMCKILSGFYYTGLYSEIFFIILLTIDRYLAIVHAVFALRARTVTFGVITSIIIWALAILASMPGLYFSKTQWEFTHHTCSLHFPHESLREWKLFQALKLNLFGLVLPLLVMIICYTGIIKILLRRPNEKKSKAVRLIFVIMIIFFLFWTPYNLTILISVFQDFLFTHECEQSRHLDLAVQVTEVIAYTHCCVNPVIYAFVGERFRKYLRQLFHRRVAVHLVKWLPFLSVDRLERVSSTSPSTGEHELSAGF
Protocol: (§1) Compounds are assessed for the ability to block the interaction of CCR1 and MIP-1α in a functional cellular assay measuring calcium flux in CCR1 transfected cells.
Method A: Non-adherent cells purchased from Chemicon Corporation (HTS005C), stably expressing recombinant CCR1 and G-alpha-16 are grown in RPMI 1640 medium (Mediatech 10-080-CM) supplemented with 10% heat-inactivated FBS, 0.4 mg/mL Geneticin and penicillin/streptomycin. On the day of the assay, the cells are transferred to a beaker and dye-loaded in bulk using a Fluo-4 NW Calcium Assay Kit with probenecid (Invitrogen F36205) at 0.8E6 cells/mL for 1 hour at room temperature. After 1 hour, they are seeded in a 384-well tissue culture-treated plate at a density of 20,000 cells/well. Appropriately diluted test compound is added to the well to achieve a top concentration of 3,000 nM (diluted 4-fold with 10 doses total). The final concentration of DMSO is 1%. The buffer is HBSS (Invitrogen 14025) with 20 mM HEPES at pH 7.4. The cells are allowed to incubate 1 hour in the dark at room temperature. The plates are transferred to the FLIPR TETRA where MIP-1 alpha in 1% BSA is added at the EC80 final concentration. Wells+/−MIP-1 alpha containing diluted DMSO instead of compound serve as the controls. Intracellular calcium flux is recorded on the FLIPR TETRA, using excitation at 470/495 nm and emission at 515/575 nm. Data are analyzed using Activity Base software.

CCR1 [2] = molecular target: T1, CCR1; test: calcium flux in CCR1 transfected cells, Method B (Calcium 4 dye, HAMAMATSU FDSS6000); assay type: cell-based; conditions: cells stably expressing recombinant CCR1 and G-alpha-16, MIP-1alpha at EC80
Protocol: as §1
Method B: Non-adherent cells purchased from Chemicon Corporation (HTS005C), stably expressing recombinant CCR1 and G-alpha-16 are grown in RPMI 1640 medium (Mediatech 10-080-CM) supplemented with 10% FBS, 0.4 mg/mL Geneticin and penicillin/streptomycin. On the day of the assay, the cells are loaded with Calcium 4 dye (Molecular Devices R7448) with Probenecid (Invitrogen P346400) at 8E5 cells/mL for 1 hour at room temperature. After 1 hour, they are seeded in a 384-well tissue culture-treated plate at a density of 20,000 cells/well. Appropriately diluted test compound is added to the well to achieve a top concentration of 3,000 nM (diluted 4-fold with 10 doses total). The final concentration of DMSO is 1%. The buffer is HBSS (Invitrogen 14025) with 20 mM HEPES at pH 7.4. The cells incubate 30 minutes at 37 C and then 30 minutes at room temperature. The plates are transferred to the HAMAMATSU FDSS6000 where MIP-1alpha in 1% BSA is added at the EC80 final concentration. All plates must be read within 4 hours of the start of dye-loading. Wells+/−MIP-1alpha containing diluted DMSO instead of compound serve as the controls. Data are analyzed using Activity Base software.

IC50 (CCR1 [1]): 14 nM
IC50 (CCR1 [2]): 14 nM
Compound: CCC[C@H](NC(=O)N1CCCc2c1cnn2-c1c(F)cc(F)cc1F)c1ccnc(S(C)(=O)=O)c1 [Example 63]
